Results taken from ChEMBL document CHEMBL1201862, “PubChem BioAssay data set” (2004).
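48-hour exposure; five concentrations; linearly interpolated endpoints. GI50 marks 50% less growth.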 Activity calls are given as the source filed them. Rule as the data show it: active = GI50 up to about 1.1 µM and inactive = higher.

Experiments:
Assay in all cases: inhibition of tumour cell growth, NCI panel, 48 h
A498 = tested on: A498
COLO 205 = tested on: COLO 205
HCT-15 = tested on: HCT-15
HL-60 = tested on: HL-60
HOP-92 = tested on: HOP-92
IGROV-1 = tested on: IGROV-1
K562 = tested on: K562
OVCAR-3 = tested on: OVCAR-3
OVCAR-4 = tested on: OVCAR-4
SF-295 = tested on: SF-295
SF-539 = tested on: SF-539
SK-MEL-28 = tested on: SK-MEL-28
SK-OV-3 = tested on: SK-OV-3
SN12C = tested on: SN12C
SW-620 = tested on: SW-620
U-251 = tested on: U-251
MOLT-4 = tested on: MOLT-4

Row | SMILES | GI50 (A498) | GI50 (COLO 205) | GI50 (HCT-15) [µM] | GI50 (HL-60) | GI50 (HOP-92) | GI50 (IGROV-1) | GI50 (K562) | GI50 (OVCAR-3) | GI50 (OVCAR-4) | GI50 (SF-295) | GI50 (SF-539) | GI50 (SK-MEL-28) | GI50 (SK-OV-3) | GI50 (SN12C) | GI50 (SW-620) | GI50 (U-251) | GI50 (MOLT-4)
1 | NNC(=O)N/N=C1\CNC(=O)C(=O)C1c1nc2ccccc2s1 (stereo not given) | > 100 µM (inactive) | > 100 µM (inactive) | > 100 | > 100 µM (inactive) | > 100 µM (inactive) | > 100 µM (inactive) | > 100 µM (inactive) | > 100 µM (inactive) | > 100 µM (inactive) | > 100 µM (inactive) | > 100 µM (inactive) | > 100 µM (inactive) | > 100 µM (inactive) | > 100 µM (inactive) | > 100 µM (inactive) | > 100 µM (inactive) | –
2 | COC(=O)C(=O)C(C(=O)C(=O)Nc1ccc([N+](=O)[O-])cc1)c1nc2ccccc2nc1O (stereo not given) | > 100 µM (inactive) | > 100 µM (inactive) | 15 | > 100 µM (inactive) | > 100 µM (inactive) | > 100 µM (inactive) | 39.1 µM (inactive) | > 100 µM (inactive) | > 100 µM (inactive) | – | – | > 100 µM (inactive) | > 100 µM (inactive) | > 100 µM (inactive) | > 100 µM (inactive) | > 100 µM (inactive) | > 100 µM (inactive)
3 | Cc1cc(O)nc(CNC(=O)c2cccc(C(=O)NCc3cc(O)nc(C)n3)c2)n1 | > 100 µM (inactive) | > 100 µM (inactive) | > 100 | > 100 µM (inactive) | > 100 µM (inactive) | > 100 µM (inactive) | > 100 µM (inactive) | > 100 µM (inactive) | > 100 µM (inactive) | > 100 µM (inactive) | > 100 µM (inactive) | > 100 µM (inactive) | > 100 µM (inactive) | > 100 µM (inactive) | > 100 µM (inactive) | > 100 µM (inactive) | > 100 µM (inactive)
4 | Cc1ccc(NC(=O)CC(=O)n2nc(-c3ccccc3)c(/N=N/c3ccc(Cl)cc3)c2-c2ccccc2)cc1 | > 100 µM (inactive) | 35 µM (inactive) | 88.7 | 0.221 µM (active) | 39.7 µM (inactive) | 57.7 µM (inactive) | 13.5 µM (inactive) | 42.6 µM (inactive) | 23.3 µM (inactive) | 58.9 µM (inactive) | 28.8 µM (inactive) | > 100 µM (inactive) | 27.5 µM (inactive) | 31.6 µM (inactive) | 15.2 µM (inactive) | – | 83.9 µM (inactive)
5 | O=C(Nc1cccc(Cl)c1)c1cc2cc(/N=N/c3ccc(Br)cc3)ccc2oc1=O | > 100 µM (inactive) | 41.4 µM (inactive) | 10.2 | – | 37.8 µM (inactive) | 51.5 µM (inactive) | 6.19 µM (inactive) | 22.8 µM (inactive) | 27.7 µM (inactive) | 42 µM (inactive) | 56.2 µM (inactive) | 47.8 µM (inactive) | 51.2 µM (inactive) | 32.1 µM (inactive) | 29.3 µM (inactive) | 26.7 µM (inactive) | 14.9 µM (inactive)
6 | CCOC(=O)/C(=C/c1ccccc1Br)P(=O)(OCC)OCC | 3.19 µM (inactive) | – | 1.78 | 0.226 µM (active) | 1.46 µM (inactive) | 3.28 µM (inactive) | 0.298 µM (active) | 2.81 µM (inactive) | 1.58 µM (inactive) | 3.96 µM (inactive) | 2.4 µM (inactive) | 2.03 µM (inactive) | – | 2.06 µM (inactive) | 1.28 µM (inactive) | 1.59 µM (inactive) | 2.28 µM (inactive)
7 | Cn1cnc([N+](=O)[O-])c1Sc1nnnn1-c1ccccc1 | 18.7 µM (inactive) | 8.09 µM (inactive) | – | – | 2.72 µM (inactive) | 16.2 µM (inactive) | 3.94 µM (inactive) | 13.6 µM (inactive) | 10.4 µM (inactive) | 17.8 µM (inactive) | 12.2 µM (inactive) | 14.4 µM (inactive) | 46.9 µM (inactive) | 15.7 µM (inactive) | 7.05 µM (inactive) | 13 µM (inactive) | 2.17 µM (inactive)
